These results are taken from patent US12202805B2, “Process for preparing (5S)-{[2-(4-carboxyphenyl)ethyl] |2-(2-{|3-chloro-4'-(trifluoromethyl)biphenyl-4-yl]methoxy}phenyl)ethyl]aminol-5,6,7,8-tetrahydroquinoline-2-carboxylic acid and its crystalline forms for use as pharmaceutically active compound” (Bayer Aktiengesellschaft, priority 2021, dated 2025).

For orientation: efflux ratio means a quotient of directional permeabilities that is used to spot active efflux.

Series [1] concerns animal model of pulmonary hypertension. The following applies: cited from earlier work.
Series [2] concerns patients with severe pulmonary hypertension. The following applies: cited from earlier work.
In series [3] the test system is thromboxane A2 challenged PAH-minipig. Briefly: Haemodynamics in the anesthetized thromboxane challenged minipig, inhaled nebulized solution (PAP, BP). The note with it: 10 μg/kg nominal dose inhaled, mean. The format is in vivo, Göttingen Minipigs. As for the experimental part:
E-1 Haemodynamics in the Anesthetized Thromboxane Challenged Minipig
Lung Selectivity and Duration of Action
Healthy Göttingen Minipigs® Ellegaard (Ellegaard, Denmark) of both sexes and having a weight of 2-6 kg were used. The animals were sedated by i.m. administration of about 25 mg/kg ketamine and about 10 mg/kg azaperone. Anaesthesia was initiated by i.v. administration of about 2 mg/kg ketamine and about 0.3 mg/kg midazolam. Maintenance of anaesthesia was by i.v. administration of about 7.5-30 mg/kg/h ketamine and about 1-4 mg/kg/h midazolam (rate of infusion 1-4 ml/kg/h) and about 150 μg/kg/h pancuronium bromide (for example Pancuronium-Actavis). After intubation, the animals were ventilated by the ventilator at a constant respiratory volume (10-12 ml/kg, 35 breaths/min; Avea®, Viasys Healthcare, USA, or Engström Carestation, GE Healthcare, Freiburg, Germany) such that an end-tidal CO2 concentration of about 5% was achieved. Ventilation was performed with room air, enriched with about 40% oxygen (normoxia). For the measurement of the haemodynamic parameters such as pulmonary arterial pressure (PAP), blood pressure (BP) and heart rate (HR), catheters were inserted into the carotid artery to measure the blood pressure, and a Swan-Ganz® catheter was introduced in a flow-directed manner via the jugular vein into the pulmonary artery. The haemodynamic signals were recorded and evaluated by means of pressure transducers (Combitransducer, B. Braun, Melsungen, Germany)/amplifiers and Ponemah® as data acquisition software.
After the instruments have been placed into the animals, continuous infusion of a thromboxane A2 analog was initiated to increase the pulmonary arterial pressure. About 0.3-0.75 μg/kg/min of 9,11-didesoxy-9α,11α-epoxymethanoprostaglandine F2α (U-44069; Sigma, cat. no. D0400, or Cayman Chemical Company, cat. no. 16440), dissolved in physiological saline, were infused to achieve an increase of the mean pulmonary arterial pressure to values of over 25 mmHg. 30 minutes after the start of the infusion, a plateau was reached, and the experiment was started.
The test substances were administered as i.v. infusion or by inhalation. For the preparation of the solution for inhalation, the following procedure was adopted: For an animal having a weight of 4 kg, to prepare the stock solution (300 μg/kg), 1.2 mg of the test compound were weighed out and dissolved in a total volume of 3 ml (1% DMSO, 99% 0.2% strength citric acid solution, 1 n aqueous sodium hydroxide solution to adjust the pH to 8). The solution was then diluted to the concentration employed using 0.2% strength citric acid which had been adjusted to pH 8 beforehand with aqueous sodium hydroxide solution. In each test, 3 ml of the solution of test compound per 4 kg animal were nebulized in the inhalation arm of the respiratory circuit using the Aeroneb® Pro nebulizer system. The mean nebulization time was about 7 min from the start of the nebulization.
With respect to a prediction of the duration of action for human studies comparative example 11 was compared in the PAH minipig model after inhaled application to Ventavis® (=Iloprost, 10 μg/kg nominal dose), which we used as a clinical reference. […] Therefore, the duration of action is more than 6 times longer compared to Ventavis in this preclinical animal model.

A short description of a further series: Caco-2 permeability test. The note with it: human, Caco-2, 2.4 μM. The class given is in vitro ADME, human. As for the experimental part:
E-3. Further Characterization E-3.1 Caco-2 Permeability Test
The in vitro permeation of a test compound across a Caco-2 cell monolayer is a well-established assay system to predict the permeability from the gastro-intestinal tract (1). The permeability of the compounds of the present invention in such Caco-2 cells was determined as described below:
Human caco-2 cells were seeded on 24-well insert plates and were allowed to grow for 14-16 days. For permeability studies, the test compounds were dissolved in DMSO and diluted to the final test concentration of 2 μM with transport buffer [Hanks' Buffered Salt Solution, Gibco/Invitrogen, further supplemented with glucose and HEPES]. For determination of the apical to basolateral permeability (PappA-B), the test compound solution was added to the apical side of the cell monolayer and transport buffer to the basolateral side of the monolayer; for determination of the basolateral to apical permeability (PappB-A), the test compound solution was added to the basolateral side of the cell monolayer and transport buffer to the apical side of the monolayer. Samples were taken from the donor compartment at the beginning of the experiment to confirm mass balance. After an incubation of 2 h at 37° C., samples were taken from both compartments. Samples were analyzed by LC-MS/MS, and the apparent permeability coefficients were calculated. Lucifer Yellow permeability was assayed for each cell monolayer to ensure cell monolayer integrity, and the permeability of Atenolol (low permeability marker) and Sulfasalazine (marker for active excretion) was determined for each batch as quality control.

With `O=C(O)CCCCN(CCc1ccccc1OCc1ccc(CCc2ccccc2)cc1)Cc1ccc(C(=O)O)cc1` [comparative example 1], the “effect on pulmonary arterial pressure” value in series [1] (inhalative administration in the form of microparticles) is given as “dose-dependent selective reduction of the pulmonary arterial pressure”. The duration of action entry in series [1] (inhalative administration) is “did not have a sufficient duration of action”.
On to `CCCCC[C@H](O)CC[C@@H]1[C@H]2Cc3cccc(OCC(=O)O)c3C[C@H]2C[C@H]1O` [Treprostinil], for which, in series [2] (inhaled, single administration, historical comparison), the “mean change in PVR from baseline” value is “approximately −30%”.
In the case of `CC#CCC(C)[C@H](O)/C=C/[C@@H]1[C@H]2C/C(=C/CCCC(=O)O)C[C@H]2C[C@H]1O` (stereo partly shown) [Ventavis ®], the “PAP % changes vs prevalue” in series [3] (time 0 min) is on record as 0%; in series [3] (time 10 min), −30.3%; in series [3] (time 20 min), −20.7%; in series [3] (time 30 min), −6.9%; in series [3] (time 40 min), 1.7%; in series [3] (time 50 min), 4.9%.
Take `CC#CCC(C)[C@H](O)/C=C/[C@@H]1[C@H]2C/C(=C/CCCC(=O)O)C[C@H]2C[C@H]1O` (stereo partly shown) [Ventavis]: in series [2] (clinical studies), the “duration of action on haemodynamics (PVR)” value is “about 60 min”.
With `COC(=O)N(C)c1c(N)nc(-c2nn(Cc3ccccc3F)c3ncccc23)nc1N` [Comparative example 2 (Riociguat)], the efflux ratio at 2 h, 2.4 μM in “Caco-2 permeability test” stood at 11 ± 3.3. For the same compound, in “Caco-2 permeability test” (2 h at 37° C., read-out: Papp A − B (mean +/− SD)), the Papp A→B at 2 h, 2.4 μM was 3.5 ± 0.84 ×10⁻⁶ cm/s. In the series “Caco-2 permeability test” (2 h at 37° C., read-out: Papp B − A (mean +/− SD)), the Papp B→A at 2 h, 2.4 μM turned out to be 36.7 ± 7.5 ×10⁻⁶ cm/s.
